Assay results reported in patent US9771341B2, “Piperazine carbamates and methods of making and using same” (Abide Therapeutics, Inc., priority 2015, dated 2017).

Columns and labels:
ABHD6 [1] = molecular target: T1, ABHD6 (Mus musculus, UniProt Q8R2Y0); assay: Mouse brain proteomes from inhibitor treated mice, ABHD6; format: in vivo; conditions: 5 mg/kg oral gavage, C57Bl/6J mice, brain proteome 4 h after administration
T1 construct: Proteomes (mouse brain membrane fraction or cell lysates); from tissue; host or cells: mouse brain membrane fraction (or unspecified cell lysates)
T1 sequence (Q8R2Y0 1-336): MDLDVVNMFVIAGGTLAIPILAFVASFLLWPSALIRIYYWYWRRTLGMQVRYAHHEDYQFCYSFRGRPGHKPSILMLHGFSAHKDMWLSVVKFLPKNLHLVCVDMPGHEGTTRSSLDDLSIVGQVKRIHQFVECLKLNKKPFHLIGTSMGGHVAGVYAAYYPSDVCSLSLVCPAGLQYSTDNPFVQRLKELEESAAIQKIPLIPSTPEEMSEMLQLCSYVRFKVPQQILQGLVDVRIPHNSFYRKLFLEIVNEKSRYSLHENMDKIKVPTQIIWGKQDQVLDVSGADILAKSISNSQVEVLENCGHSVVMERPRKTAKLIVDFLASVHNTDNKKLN
Protocol: (§1) Preparation of Mouse Brain Proteomes from Inhibitor Treated Mice.
(§2) Inhibitors were administered to wild-type C57Bl/6J by oral gavage in a vehicle of polyethylene glycol.

ABHD6 [2] = molecular target: T1, ABHD6; assay: In vitro competitive activity-based protein profiling (mouse), ABHD6; format: biochemical; conditions: for IC50: mouse brain membrane fraction or cell lysates, 30 min preincubation at 37° C, FP-Rh probe; for inhibition at 1 µM: mouse proteome, in vitro, read-out: % Inhibition at 1 μM ABHD6
Protocol: (§3) In Vitro Competitive Activity-Based Protein Profiling (Mouse).
(§4) Proteomes (mouse brain membrane fraction or cell lysates) (50 μL, 1.0 mg/mL total protein concentration) were preincubated with varying concentrations of inhibitors at 37° C. After 30 min, FP-Rh (1.0 μL, 50 μM in DMSO) was added and the mixture was incubated for another 30 min at 37° C. Reactions were quenched with SDS loading buffer (50 μL-4×) and run on SDS-PAGE.

MAGL [3] = molecular target: T2, MAGL (Mus musculus, UniProt O35678); assay: In vitro competitive activity-based protein profiling (mouse), MAGL; format: biochemical; conditions: for IC50: mouse brain membrane fraction or cell lysates, 30 min preincubation at 37° C, FP-Rh probe; for inhibition at 1 µM: mouse proteome, in vitro, read-out: % Inhibition at 1 μM MAGL
T2 construct: Proteomes (mouse brain membrane fraction or cell lysates); from tissue; host or cells: mouse brain membrane fraction (or unspecified cell lysates)
T2 sequence (O35678 1-303): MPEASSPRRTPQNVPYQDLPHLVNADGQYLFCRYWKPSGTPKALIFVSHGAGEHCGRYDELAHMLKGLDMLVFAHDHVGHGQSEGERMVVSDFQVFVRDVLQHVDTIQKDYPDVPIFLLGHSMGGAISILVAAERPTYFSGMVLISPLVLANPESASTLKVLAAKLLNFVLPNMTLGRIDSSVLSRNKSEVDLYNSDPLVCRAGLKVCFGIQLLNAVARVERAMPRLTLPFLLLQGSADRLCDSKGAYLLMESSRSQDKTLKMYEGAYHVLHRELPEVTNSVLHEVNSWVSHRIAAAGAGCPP
Protocol: as §3, §4

FAAH [4] = molecular target: T3, FAAH (Mus musculus, UniProt O08914); assay: In vitro competitive activity-based protein profiling (mouse), FAAH; format: biochemical; conditions: for IC50: mouse brain membrane fraction or cell lysates, 30 min preincubation at 37° C, FP-Rh probe; for inhibition at 1 µM: mouse proteome, in vitro
T3 construct: Proteomes (mouse brain membrane fraction or cell lysates); from tissue; host or cells: mouse brain membrane fraction (or unspecified cell lysates)
T3 sequence (O08914 1-579): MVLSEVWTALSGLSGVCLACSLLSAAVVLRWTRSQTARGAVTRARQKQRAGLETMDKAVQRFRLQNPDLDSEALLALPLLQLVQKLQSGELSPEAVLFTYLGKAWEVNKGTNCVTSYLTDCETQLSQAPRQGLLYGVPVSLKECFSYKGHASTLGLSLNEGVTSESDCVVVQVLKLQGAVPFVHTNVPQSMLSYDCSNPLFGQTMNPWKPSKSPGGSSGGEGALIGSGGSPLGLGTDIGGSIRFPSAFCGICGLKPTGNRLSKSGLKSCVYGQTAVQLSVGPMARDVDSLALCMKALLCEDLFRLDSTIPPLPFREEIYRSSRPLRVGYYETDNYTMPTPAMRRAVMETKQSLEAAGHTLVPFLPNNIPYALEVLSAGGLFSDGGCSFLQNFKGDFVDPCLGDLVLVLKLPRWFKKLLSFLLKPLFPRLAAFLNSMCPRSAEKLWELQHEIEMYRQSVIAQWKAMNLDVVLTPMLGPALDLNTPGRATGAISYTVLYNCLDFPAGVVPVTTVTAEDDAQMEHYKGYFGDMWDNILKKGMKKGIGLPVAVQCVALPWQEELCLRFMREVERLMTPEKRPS
Outline: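 Mouse brain membrane fraction or cell lysates (1.0 mg/mL protein) preincubated with inhibitors 30 min at 37° C, then FP-Rh probe 30 min at 37° C. SDS-PAGE fluorescence band intensity gave FAAH activity.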

MAGL [5] = molecular target: T2, MAGL; assay: Mouse brain proteomes from inhibitor treated mice, MAGL; format: in vivo; conditions: 5 mg/kg oral gavage, C57Bl/6J mice, brain proteome 4 h after administration
Protocol: as §1, §2

FAAH [6] = molecular target: T3, FAAH; assay: Mouse brain proteomes from inhibitor treated mice, FAAH; format: in vivo; conditions: 5 mg/kg oral gavage, C57Bl/6J mice, brain proteome 4 h after administration
Protocol: as §1
Inhibitors were administered to wild-type C57Bl/6J by oral gavage in a vehicle of polyethylene glycol. Each animal was sacrificed 4 h following administration and brain proteomes were prepared and analyzed according to previously established methods (See Niphakis, M. J., et al. (2011) ACS Chem. Neurosci. and Long, J. Z., et al. Nat. Chem. Biol. 5:37-44)

inhibition at 5 mg/kg (ABHD6 [1]) [%] | IC50 (ABHD6 [2]) [nM] | IC50 (MAGL [3]) [nM] | IC50 (FAAH [4]) [nM] | inhibition at 5 mg/kg (MAGL [5]) [%] | inhibition at 5 mg/kg (FAAH [6]) [%] | inhibition at 1 µM (ABHD6 [2]) [%] | inhibition at 1 µM (MAGL [3]) [%] | inhibition at 1 µM (FAAH [4]) [%] | SMILES
 |  |  | > 1000 |  | < 25 |  |  | < 25 | O=C(OC(C(F)(F)F)C(F)(F)F)N1CCN(Cc2ccc(C(F)(F)F)cc2N2CC3CCC(C2)O3)CC1 [Example 59, 1,1,1,3,3,3-hexafluoropropan-2-yl 4-(2-(8-oxa-3-azabicyclo[3.2.1]octan-3-yl)-4-(trifluoromethyl)benzyl)piperazine-1-carboxylate]
 | 100 to 1000 | 100 to 1000 | > 1000 |  |  | > 75 | > 75 | < 25 | O=C(OC(C(F)(F)F)C(F)(F)F)N1CCN(Cc2cc(N3CCC(CO)CC3)cc(C(F)(F)F)c2)CC1 [Example 91, 1,1,1,3,3,3-hexafluoropropan-2-yl 4-(3-(4-(hydroxymethyl)piperidin-1-yl)-5-(trifluoromethyl)benzyl)piperazine-1-carboxylate]
 | > 1000 | < 100 | > 1000 |  |  | < 25 | > 75 | < 25 | O=C(O)C1CN(c2cc(CN3CCN(C(=O)OC(C(F)(F)F)C(F)(F)F)CC3)cc(C(F)(F)F)c2)CCO1 (centres unmarked) [Example 92, 4-(3-((4-(((1,1,1,3,3,3-hexafluoropropan-2-yl)oxy)carbonyl)piperazin-1-yl)methyl)-5-(trifluoromethyl)phenyl)morpholine-2-carboxylic acid]
 | 100 to 1000 | < 100 | > 1000 |  |  | > 75 | > 75 | < 25 | O=C(O)C(=O)c1cc(CN2CCN(C(=O)OC(C(F)(F)F)C(F)(F)F)CC2)cc(C(F)(F)F)c1 [Example 93, 2-(3-((4-(((1,1,1,3,3,3-hexafluoropropan-2-yl)oxy)carbonyl)piperazin-1-yl)methyl)-5-(trifluoromethyl)phenyl)-2-oxoacetic acid]
 | < 100 | 100 to 1000 | > 1000 |  |  | > 75 | 25 to 75 | < 25 | O=C(O)C1CCN(c2cc(CN3CCN(C(=O)OC(C(F)(F)F)C(F)(F)F)CC3)cc(C(F)(F)F)c2)CC1 [Example 94, 1-(3-((4-(((1,1,1,3,3,3-hexafluoropropan-2-yl)oxy)carbonyl)piperazin-1-yl)methyl)-5-(trifluoromethyl)phenyl)piperidine-4-carboxylic acid]

Continued, molecule first:

SMILES | inhibition at 5 mg/kg (ABHD6 [1]) [%] | IC50 (ABHD6 [2]) [nM] | IC50 (MAGL [3]) [nM] | IC50 (FAAH [4]) [nM] | inhibition at 5 mg/kg (MAGL [5]) [%] | inhibition at 5 mg/kg (FAAH [6]) [%] | inhibition at 1 µM (ABHD6 [2]) [%] | inhibition at 1 µM (MAGL [3]) [%] | inhibition at 1 µM (FAAH [4]) [%]
C#CCO[C@H]1CCN(c2cc(Cl)ccc2CN2CCN(C(=O)OC(C(F)(F)F)C(F)(F)F)CC2)C1 [Example 3, 1,1,1,3,3,3-hexafluoropropan-2-yl (S)-4-(4-chloro-2-(3-(prop-2-yn-1-yloxy)pyrrolidin-1-yl)benzyl)piperazine-1-carboxylate] | < 25 | > 1000 | < 100 | > 1000 | > 75 | < 25 |  |  | 
O=C(OC(C(F)(F)F)C(F)(F)F)N1CCN(Cc2ccc(Cl)cc2N2CC[C@H](CF)C2)CC1 [Example 4, 1,1,1,3,3,3-hexafluoropropan-2-yl (S)-4-(4-chloro-2-(3-(fluoromethyl)pyrrolidin-1-yl)benzyl)piperazine-1-carboxylate] | < 25 | > 1000 | < 100 | > 1000 | > 75 | < 25 | < 25 | > 75 | < 25
COc1c(CN2CCN(C(=O)OC(C(F)(F)F)C(F)(F)F)CC2)cccc1CN1CCC(F)(F)CC1 [Example 16, 1,1,1,3,3,3-hexafluoropropan-2-yl 4-(3-((4,4-difluoropiperidin-1-yl)methyl)-2-methoxybenzyl)piperazine-1-carboxylate] | 25 to 75 | 100 to 1000 | < 100 | > 1000 | > 75 | < 25 | > 75 | > 75 | < 25
O=C(OC(C(F)(F)F)C(F)(F)F)N1CCN(Cc2ccc(CN3CCOCC3)cc2OC(F)(F)F)CC1 [Example 23, 1,1,1,3,3,3-hexafluoropropan-2-yl 4-(4-(morpholinomethyl)-2-(trifluoromethoxy)benzyl)piperazine-1-carboxylate] | < 25 | > 1000 | < 100 | > 1000 | > 75 | < 25 | < 25 | > 75 | < 25
O=C(OC(C(F)(F)F)C(F)(F)F)N1CCN(Cc2ccc(C(F)(F)F)c(N3CC4CCC(C3)O4)c2)CC1 [Example 26, 1,1,1,3,3,3-hexafluoropropan-2-yl 4-(3-(8-oxa-3-azabicyclo[3.2.1]octan-3-yl)-4-(trifluoromethyl)benzyl)piperazine-1-carboxylate] | > 75 | 100 to 1000 | < 100 | > 1000 | > 75 | < 25 | > 75 | > 75 | < 25
O=C(OC(C(F)(F)F)C(F)(F)F)N1CCN(Cc2ccc(Cl)cc2N2CC3CCC(C2)O3)CC1 [Example 30, 1,1,1,3,3,3-hexafluoropropan-2-yl 4-(2-(8-oxa-3-azabicyclo[3.2.1]octan-3-yl)-4-chlorobenzyl)piperazine-1-carboxylate] |  |  |  | > 1000 |  | < 25 |  |  | 
O=C(OC(C(F)(F)F)C(F)(F)F)N1CCN(Cc2cccc(OC(F)(F)F)c2N2CC3CCC(C2)O3)CC1 [Example 31, 1,1,1,3,3,3-hexafluoropropan-2-yl 4-(2-(8-oxa-3-azabicyclo[3.2.1]octan-3-yl)-3-(trifluoromethoxy)benzyl)piperazine-1-carboxylate] | < 25 | > 1000 | < 100 | > 1000 | 25 to 75 | < 25 | < 25 | > 75 | < 25
O=C(OC(C(F)(F)F)C(F)(F)F)N1CCN(Cc2ccc(C(F)(F)F)cc2N2C3CCC2COC3)CC1 [Example 58, 1,1,1,3,3,3-hexafluoropropan-2-yl 4-(2-(3-oxa-8-azabicyclo[3.2.1]octan-8-yl)-4-(trifluoromethyl)benzyl)piperazine-1-carboxylate] |  |  |  | > 1000 |  | < 25 |  |  | < 25
